In US12303509B2, “Compounds for the treatment of BRAF-associated diseases and disorders” (Pfizer Inc., priority 2020, dated 2025):
Structures can show the parent of a compound that is named as a salt.

How the values were obtained:
[1] = PK (free brain-to-free plasma ratio) (mouse); format: in vivo; details: male CD-1 mice, oral gavage 10 mg/kg, unbound brain-to-unbound plasma, read-out: B/P ratio (free)
Procedure: The ability of representative compounds to penetrate the BBB in mice was determined by evaluating the unbound brain-to-unbound plasma (also referred to as free brain-to-free plasma) concentration ratio in male CD-1 mice.
Brain compound levels were generated from oral mouse PK dosing with typical sampling times of 2, 4, 8, 12 and 24 hours post oral gavage dosing at 10 mg/kg. Brain samples were stored at −20±5° C. prior to analysis. Concentrations of test compound in mouse brain homogenate were determined by liquid chromatography tandem mass spectrometry (LC-MS/MS) following protein precipitation with acetonitrile. A 12-point calibration curve, ranging from 0.5 to 10,000 ng/mL, was prepared in duplicate. A solution of 400 μg/mL of test compound in dimethyl sulfoxide (DMSO) was serially diluted (3-fold) in 100% DMSO, and then 2.5 μL of each standard solution was added to 100 μL of naïve male CD-1 mice brain homogenate. To mimic the extraction in the standard curve, 2.5 μL of DMSO was added to all test samples. Both calibration and test brain homogenate samples were spiked with 10 μL of an IS (1 μg/mL of a structural analog). Brain homogenate was generated by adding 0.75 mL of 4:1 water:MeOH to each brain sample followed by homogenization for 1 minute with bead beater tubes a 6 m/s using an MP Fast Prep-24®. Proteins were precipitated from 100 μL of brain homogenate sample by the addition of 300 μL of acetonitrile. Samples were vortex-mixed for 5 minutes and spun in an Allegra X-12R centrifuge (Beckman Coulter, Fullerton, CA; SX4750A rotor) for 15 min at approximately 1,500×g at 4° C. A 100 μL aliquot of each supernatant was transferred via a 550 μL Personal Pipettor (Apricot Designs, Monrovia, CA) to 96-well plates and diluted 1:1 with HPLC grade water. The resulting plates were sealed with aluminum for LC-MS/MS analysis.
Brain-to-plasma ratios were calculated using the concentration of compound measured in the brain divided by the concentration of compound measured in the plasma. Brain-to-plasma ratios were always generated from a single animal and time point. Free brain-to-free plasma ratios were calculated by multiplying the brain-to-plasma ratio by the in vitro brain homogenate free fraction divided by the in vitro plasma free fraction using the following equation: (B/P)*(Bfu/Pfu). Table C provides the free brain-to-free plasma ratios of compounds disclosed herein.

[2] = MDR1 LLC-PK1 and BCRP MDCKII permeability assay: permeability coefficient (Papp); format: in vitro ADME
Text: (§1) Final organic concentration in the assay was 1%.

H1755 cells = assay: Cellular phospho-ERK inhibition assay in H1755 cells; format: cell-based; details: Homo sapiens, NCI-H1755, 2 hours treatment, read-out: H1755 Cell IC50
How it was run: (§2)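 In Cell Western detection of phospho-ERK1/2 (Thr202/Tyr204) over GAPDH after 2 h compound exposure (66 pM to 10 μM, 9 points, 0.25% DMSO) of A375 cells in DMEM or H1755 cells in RPMI, both with 10% FBS. Percent of control set by DMSO and 10 μM binimetinib; 4-parameter IC50.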

P-gp (MDR1) = P-gp (MDR1) (Homo sapiens (Human), UniProt P08183); assay: MDR1 LLC-PK1 permeability assay: efflux ratio; format: in vitro ADME; details: pig
Text: as §1

A375 cells = assay: Cellular phospho-ERK inhibition assay in A375 cells; format: cell-based; details: Homo sapiens, A-375, A375 cells (head prints A357), 2 hours treatment, read-out: A357 cell IC50
How it was run: as §2

[3] = molecular target: full-length FLAG-tagged B-Raf(V600E) (Homo sapiens (Human), UniProt P15056, V600E); assay: BRAF V600E enzyme assay (TR-FRET competitive displacement); format: binding; details: averaged IC50; TR-FRET tracer displacement, 60 min
How it was run: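 TR-FRET tracer competition: compound (top dose 10 μM, 3-fold, 11 points) incubated 60 min at ambient temperature with FLAG-tagged full-length B-Raf(V600E) (5 nM), Eu anti-FLAG cryptate (0.5 nM) and tracer (50 nM), pH 7.4 HEPES/MgCl2 buffer. 665/615 ratio converted to percent of control; IC50 where fitted curve crosses 50 POC.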

BCRP = BCRP (Homo sapiens (Human), UniProt Q9UNQ0); assay: BCRP MDCKII permeability assay: efflux ratio; format: in vitro ADME; details: dog
Sequence of BCRP (Q9UNQ0 whole entry): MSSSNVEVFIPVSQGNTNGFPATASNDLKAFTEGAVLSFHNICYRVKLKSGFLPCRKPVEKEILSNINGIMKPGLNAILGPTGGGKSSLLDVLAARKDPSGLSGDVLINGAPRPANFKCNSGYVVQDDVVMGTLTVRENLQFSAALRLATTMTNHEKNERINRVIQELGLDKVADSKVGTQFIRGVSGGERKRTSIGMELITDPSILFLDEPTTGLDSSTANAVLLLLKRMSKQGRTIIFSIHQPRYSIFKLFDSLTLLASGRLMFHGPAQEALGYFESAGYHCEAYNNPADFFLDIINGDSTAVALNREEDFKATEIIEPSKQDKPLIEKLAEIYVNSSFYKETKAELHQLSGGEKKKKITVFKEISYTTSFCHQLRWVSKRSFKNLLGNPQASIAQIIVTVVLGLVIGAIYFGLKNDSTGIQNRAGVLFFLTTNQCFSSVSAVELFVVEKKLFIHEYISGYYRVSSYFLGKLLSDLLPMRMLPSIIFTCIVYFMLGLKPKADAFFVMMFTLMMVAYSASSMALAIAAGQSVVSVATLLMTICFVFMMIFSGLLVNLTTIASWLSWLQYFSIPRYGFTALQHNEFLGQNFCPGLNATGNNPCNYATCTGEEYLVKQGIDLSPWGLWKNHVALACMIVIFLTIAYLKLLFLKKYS
Procedure: BCRP transfected MDCKII cells were cultured and plated according to manufacturer's recommendations. Assay conditions included with and without the BCRP-specific inhibitor, KO143, at a concentration of 0.3 μM to ascertain the contribution of BCRP to the efflux value of the test compound.
Both positive and negative controls were used to assess functionality of P-gp or BCRP efflux in the assays. […] Final organic concentration in the assay was 1%. All dosing solutions contained 10 μM lucifer yellow to monitor LLC-PK1 or MDCKII cell monolayer integrity.
For the apical to basolateral determination (A to B), 75 μL of the test article in transport buffer were added to the apical side of the individual transwells and 250 μL of basolateral media, without compound or lucifer yellow, were added to each well. For the basolateral to apical determination (B to A), 250 μL of test article in transport buffer were added to each well and 75 μL transport buffer, without compound or lucifer yellow, were added to each transwell. All tests were performed in triplicate, and each compound was tested for both apical to basolateral and basolateral to apical transport. The plates were incubated for 2 hours on a Lab-Line Instruments Titer Orbital Shaker (VWR, West Chester, PA) at 50 rpm and 37° C. with 5% CO2. All culture plates were removed from the incubator and 50 μL of media were removed from the apical and basolateral portion of each well and added to 150 μL of 1 μM labetalol in 2:1 acetonitrile (acetonitrile): H2O, v/v.
These values were accepted when found to be below 2% for apical to basolateral and 5% basolateral to apical flux across the MDR1-transfected LLC-PK1 or BCRP-transfected MDCKII cell monolayers. The plates were sealed and the contents of each well analyzed by LC-MS/MS. The compound concentrations were determined from the ratio of the peak areas of the compound to the internal standard (labetalol) in comparison to the dosing solution.
The LC-MS/MS system was comprised of an HTS-PAL autosampler (Leap Technologies, Carrboro, NC), an HP1200 HPLC (Agilent, Palo Alto, CA), and a MDS Sciex 4000 Q Trap system (Applied Biosystems, Foster City, CA). […] The total run time, including re-equilibration, for a single injection was 1.2 minutes. Mass spectrometric detection of the analytes was accomplished using the ion spray positive mode.
An efflux ratio is calculated from the mean apical to basolateral (A-B) Papp data and basolateral to apical (B-A) Papp data using the following equation: Efflux ratio=Papp(B-A)/Papp(A-B)

Sequence of full-length FLAG-tagged B-Raf(V600E) (P15056 whole entry V600E): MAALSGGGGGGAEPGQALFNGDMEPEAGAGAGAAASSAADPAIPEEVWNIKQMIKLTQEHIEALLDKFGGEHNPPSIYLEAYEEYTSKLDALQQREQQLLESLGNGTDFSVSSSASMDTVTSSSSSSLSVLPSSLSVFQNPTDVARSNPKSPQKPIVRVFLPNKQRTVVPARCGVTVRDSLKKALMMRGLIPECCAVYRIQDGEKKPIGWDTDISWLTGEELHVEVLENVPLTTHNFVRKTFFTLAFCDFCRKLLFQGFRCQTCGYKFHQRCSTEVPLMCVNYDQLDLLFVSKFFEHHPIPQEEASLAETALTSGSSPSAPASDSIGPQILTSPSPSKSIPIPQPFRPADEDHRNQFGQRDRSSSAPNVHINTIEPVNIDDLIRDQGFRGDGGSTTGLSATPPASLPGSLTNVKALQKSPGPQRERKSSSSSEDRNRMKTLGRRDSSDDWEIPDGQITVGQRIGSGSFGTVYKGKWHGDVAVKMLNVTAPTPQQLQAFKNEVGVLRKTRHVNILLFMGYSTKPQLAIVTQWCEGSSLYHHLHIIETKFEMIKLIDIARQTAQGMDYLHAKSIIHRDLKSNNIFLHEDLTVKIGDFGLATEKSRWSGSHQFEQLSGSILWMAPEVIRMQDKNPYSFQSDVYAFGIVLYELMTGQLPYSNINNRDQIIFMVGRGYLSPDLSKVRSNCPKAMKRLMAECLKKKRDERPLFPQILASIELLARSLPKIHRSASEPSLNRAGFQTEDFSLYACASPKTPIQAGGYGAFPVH
Sequence of P-gp (MDR1) (P08183 whole entry, species assumed): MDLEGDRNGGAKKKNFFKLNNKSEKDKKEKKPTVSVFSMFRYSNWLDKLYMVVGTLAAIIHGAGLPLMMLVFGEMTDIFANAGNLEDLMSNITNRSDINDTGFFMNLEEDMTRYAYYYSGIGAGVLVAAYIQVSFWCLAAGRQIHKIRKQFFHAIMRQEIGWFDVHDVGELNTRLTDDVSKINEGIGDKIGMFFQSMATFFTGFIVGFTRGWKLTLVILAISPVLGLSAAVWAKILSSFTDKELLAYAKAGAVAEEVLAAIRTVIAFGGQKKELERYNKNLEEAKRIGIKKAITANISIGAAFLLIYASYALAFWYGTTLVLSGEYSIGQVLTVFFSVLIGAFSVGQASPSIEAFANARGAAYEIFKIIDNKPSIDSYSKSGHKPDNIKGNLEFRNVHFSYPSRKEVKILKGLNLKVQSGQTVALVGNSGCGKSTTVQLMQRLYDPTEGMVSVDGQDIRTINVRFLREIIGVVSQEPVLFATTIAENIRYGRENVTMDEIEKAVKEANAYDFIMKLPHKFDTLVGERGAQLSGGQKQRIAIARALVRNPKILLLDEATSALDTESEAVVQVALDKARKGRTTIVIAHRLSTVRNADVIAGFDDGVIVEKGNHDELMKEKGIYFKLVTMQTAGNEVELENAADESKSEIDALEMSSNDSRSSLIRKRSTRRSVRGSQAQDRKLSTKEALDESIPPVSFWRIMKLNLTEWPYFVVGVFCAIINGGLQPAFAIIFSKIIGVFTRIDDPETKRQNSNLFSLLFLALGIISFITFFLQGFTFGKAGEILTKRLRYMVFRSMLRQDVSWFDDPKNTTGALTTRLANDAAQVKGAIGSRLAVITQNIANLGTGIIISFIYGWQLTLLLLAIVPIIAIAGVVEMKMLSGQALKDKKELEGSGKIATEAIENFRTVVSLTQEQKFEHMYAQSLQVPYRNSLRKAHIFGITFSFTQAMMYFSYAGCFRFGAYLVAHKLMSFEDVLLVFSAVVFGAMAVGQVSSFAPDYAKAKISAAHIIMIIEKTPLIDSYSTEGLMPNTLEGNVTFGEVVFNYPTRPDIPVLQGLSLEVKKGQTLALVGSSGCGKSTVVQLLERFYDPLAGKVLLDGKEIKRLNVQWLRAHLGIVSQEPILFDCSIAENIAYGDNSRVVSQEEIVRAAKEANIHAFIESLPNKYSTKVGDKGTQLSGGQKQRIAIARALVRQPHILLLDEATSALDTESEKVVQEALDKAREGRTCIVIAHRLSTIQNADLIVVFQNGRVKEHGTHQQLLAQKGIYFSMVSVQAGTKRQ

Kp [1] | Papp at 2 h, 1 µM [2] [×10⁻⁶ cm/s] | IC50 (H1755 cells) [nM] | efflux ratio at 2 h, 1 µM (P-gp (MDR1)) | IC50 (A375 cells) [nM] | IC50 [3] [nM] | efflux ratio at 2 h, 1 µM (BCRP) | SMILES
0.87 to 1.76 | 27 | 66 | 1.9 | 6 | 13 | 1.3 | CO[C@@H]1CCN(S(=O)(=O)Nc2ccc(F)c(Nc3ccc4ncn(C)c(=O)c4c3Cl)c2Cl)C1 [Example 6, (R)-N-(2-chloro-4-fluoro-3-((5-chloro-3-methyl-4-oxo-3,4-dihydroquinazolin-6-yl)amino)phenyl)-3-methoxypyrrolidine-1-sulfonamide]
0.37 to 0.61 | 29 | 31 | 1.7 | 5 | 12 | 2.2 | Cn1cnc2ccc(Nc3c(F)ccc(NS(=O)(=O)N4CCCC4)c3Cl)c(F)c2c1=O [Example 7, N-(2-chloro-4-fluoro-3-((5-fluoro-3-methyl-4-oxo-3,4-dihydroquinazolin-6-yl)amino)phenyl)pyrrolidine-1-sulfonamide trifluoroacetate]
0.36 to 0.4 | 29 | 85 | 1.1 | 14 | 7 | 1.1 | Cn1cnc2ccc(Nc3c(F)ccc(NS(=O)(=O)N4CC5CC4C5)c3Cl)c(Cl)c2c1=O [Example 9, N-(2-chloro-3-((5-chloro-3-methyl-4-oxo-3,4-dihydroquinazolin-6-yl)amino)-4-fluorophenyl)-2-azabicyclo[2.1.1]hexane-2-sulfonamide trifluoroacetate]
0.34 to 0.39 | 28 | 97 | 1.1 | 8 | 7 | 0.9 | Cn1cnc2ccc(Nc3c(F)ccc(NS(=O)(=O)N4CCCC4)c3Cl)c(Cl)c2c1=O [Example 12, N-(2-chloro-3-((5-chloro-3-methyl-4-oxo-3,4-dihydroquinazolin-6-yl)amino)-4-fluorophenyl)pyrrolidine-1-sulfonamide trifluoroacetate]
0.61 to 0.64 | 24 | 80 | 1.3 | 7 | 4 | 1.1 | Cn1cnc2ccc(Nc3c(F)ccc(NS(=O)(=O)N4CC5CC5C4)c3Cl)c(Cl)c2c1=O (stereo not shown) [Example 17, N-(2-chloro-3-((5-chloro-3-methyl-4-oxo-3,4-dihydroquinazolin-6-yl)amino)-4-fluorophenyl)-3-azabicyclo[3.1.0]hexane-3-sulfonamide]
0.61 to 0.83 | 30 | 39 | 2.1 | 5 | 4 | 1.3 | Cn1cnc2ccc(Nc3c(F)ccc(NS(=O)(=O)N4CC[C@@H](F)C4)c3Cl)c(Cl)c2c1=O [Example 19, (R)-N-(2-chloro-3-((5-chloro-3-methyl-4-oxo-3,4-dihydroquinazolin-6-yl)amino)-4-fluorophenyl)-3-fluoropyrrolidine-1-sulfonamide]
0.4 to 0.58 | 37 | 29 | 2.2 | 2 | 3 | 1.8 | Cn1cnc2ccc(Oc3c(F)ccc(NS(=O)(=O)N4CC[C@@H](F)C4)c3Cl)c(F)c2c1=O [Example 20, (R)-N-(2-chloro-4-fluoro-3-((5-fluoro-3-methyl-4-oxo-3,4-dihydroquinazolin-6-yl)oxy)phenyl)-3-fluoropyrrolidine-1-sulfonamide]
0.41 to 0.55 | 28 | 35 | 1.7 | 9 | 3 | 2.9 | Cn1cnc2ccc(Nc3c(F)ccc(NS(=O)(=O)N4CC[C@@H](OC(F)F)C4)c3Cl)c(Cl)c2c1=O [Example 29, (R)-N-(2-chloro-3-((5-chloro-3-methyl-4-oxo-3,4-dihydroquinazolin-6-yl)amino)-4-fluorophenyl)-3-(difluoromethoxy)pyrrolidine-1-sulfonamide]
0.51 to 0.64 | 40 | 42 | 1.5 | 4 | 2 | 1.2 | Cn1cnc2ccc(Nc3c(F)ccc(NS(=O)(=O)N4CC5CC5C4)c3Cl)c(F)c2c1=O (stereo not shown) [Example 30, N-(2-chloro-4-fluoro-3-((5-fluoro-3-methyl-4-oxo-3,4-dihydroquinazolin-6-yl)amino)phenyl)-3-azabicyclo[3.1.0]hexane-3-sulfonamide trifluoroacetate]
0.66 to 0.73 | 29 | 33 | 2.4 | 4 | 4 | 1.5 | CO[C@@H]1CCN(S(=O)(=O)Nc2ccc(F)c(Oc3ccc4ncn(C)c(=O)c4c3Cl)c2Cl)C1 [Example 37, (R)-N-(2-chloro-3-((5-chloro-3-methyl-4-oxo-3,4-dihydroquinazolin-6-yl)oxy)-4-fluorophenyl)-3-methoxypyrrolidine-1-sulfonamide]
0.2 to 0.24 | 33 | 27 | 1.2 | 5 | 2 | 1.8 | Cn1cnc2ccc(Oc3c(F)ccc(NS(=O)(=O)N4CC[C@@H](F)C4)c3Cl)c(Cl)c2c1=O [Example 38, (R)-N-(2-chloro-3-((5-chloro-3-methyl-4-oxo-3,4-dihydroquinazolin-6-yl)oxy)-4-fluorophenyl)-3-fluoropyrrolidine-1-sulfonamide]
0.55 to 0.72 | 29 | 50 | 2 | 4 | 2 | 2.3 | Cn1cnc2ccc(Nc3c(F)c(F)cc(NS(=O)(=O)N4CCCC4)c3Cl)c(F)c2c1=O [Example 40, N-(2-chloro-4,5-difluoro-3-((5-fluoro-3-methyl-4-oxo-3,4-dihydroquinazolin-6-yl)amino)phenyl)pyrrolidine-1-sulfonamide trifluoroacetate]
0.35 to 0.45 | 29 | 42 | 1.9 | 5 | 3 | 2.5 | Cn1cnc2ccc(Nc3c(F)c(F)cc(NS(=O)(=O)N4CC5CC4C5)c3Cl)c(F)c2c1=O [Example 41, N-(2-chloro-4,5-difluoro-3-((5-fluoro-3-methyl-4-oxo-3,4-dihydroquinazolin-6-yl)amino)phenyl)-2-azabicyclo[2.1.1]hexane-2-sulfonamide trifluoroacetate]
 | 26 | 879 | 1.4 | 404 | 28 | 1.3 | Cc1c(Nc2cc(F)cc(NS(=O)(=O)N3CCCC3)c2F)ccc2ncn(C)c(=O)c12 [Example 154, N-(3-((3,5-dimethyl-4-oxo-3,4-dihydroquinazolin-6-yl)amino)-2,5-difluorophenyl)pyrrolidine-1-sulfonamide]
